Values after ≈ are worked out from the molar mass of the structure shown.
What was measured:
Assay in all cases: Antibacterial effectiveness testing, growth inhibition in BHI broth (absorbance 600 nm)
Conditions in all cases: 37° C., 24 h
E. coli, ATCC-8739 = assay type: cell-based
Method: (§1) The antibacterial effectiveness testing was run against 7 strains of bacteria using the following protocol. Protocol: […] Bacteria (either E. coli or P. aeruginosa or S. aureus or […] or K. pneumonia or A. baumanni or C. albicans) are added to all well except the control and incubated at 37° C. for 24 h. The absorbance was read at 600 nm. MIC90 was calculated as the concentration at which 90% growth inhibition is noticed. N=4 replicates for each compound and bacteria.

S. marcenes, ATCC-21639 = assay type: cell-based
Method: as §1

C. albicans, ATCC1-0231 = assay type: cell-based
Method: as §1

S. aeureus, ATCC 6538 = assay type: cell-based, S. aureus
Method: as §1

A. baumanni-ATCC-19606 = assay type: cell-based
Method: (§2) The antibacterial effectiveness testing was run against 7 strains of bacteria using the following protocol. […] Bacteria (either E. coli or P. aeruginosa or S. aureus or […] or K. pneumonia or A. baumanni or C. albicans) are added to all well except the control and incubated at 37° C. for 24 h. The absorbance was read at 600 nm. MIC90 was calculated as the concentration at which 90% growth inhibition is noticed. N=4 replicates for each compound and bacteria.

K. pneumonia, ATCC-18804 = assay type: cell-based
Method: as §2

P. aeruginosa, ATCC-9027 = assay type: cell-based
Method: as §2

[1] = * BHI not containing acetic acid/BSA, beginning 1000 μg/mL suspension
[2] = no asterisk (BHI containing acetic acid/BSA), beginning 1000 μg/mL suspension
[3] = no asterisk, beginning 1000 μg/mL in DMSO/Water

## N=C(NCCN(CCNC(=N)NC(=N)Nc1ccc(Cl)cc1)CCNC(=N)NC(=N)Nc1ccc(Cl)cc1)NC(=N)Nc1ccc(Cl)cc1 [USD 18]
E. coli, ATCC-8739; [1]
  MIC90 (E. coli, ATCC-8739): 3.12 µg/mL (≈ 4.27 µM)
E. coli, ATCC-8739; [2]
  MIC90 (E. coli, ATCC-8739): 3.15 µg/mL (≈ 4.31 µM)
E. coli, ATCC-8739; [3]
  MIC90 (E. coli, ATCC-8739): 6.25 µg/mL (≈ 8.56 µM)
S. marcenes, ATCC-21639; [1]
  MIC (S. marcenes, ATCC-21639): 3.12 µg/mL (≈ 4.27 µM)
S. marcenes, ATCC-21639; [2]
  MIC (S. marcenes, ATCC-21639): 50 µg/mL (≈ 68.5 µM)
S. marcenes, ATCC-21639; [3]
  MIC (S. marcenes, ATCC-21639): 12.5 µg/mL (≈ 17.1 µM)
C. albicans, ATCC1-0231; [2]
  MIC (C. albicans, ATCC1-0231): 6.25 µg/mL (≈ 8.56 µM)
C. albicans, ATCC1-0231; [3]
  MIC (C. albicans, ATCC1-0231): 3.12 µg/mL (≈ 4.27 µM)
S. aeureus, ATCC 6538; [1]
  MIC (S. aeureus, ATCC 6538): 0.78 µg/mL (≈ 1.07 µM)
S. aeureus, ATCC 6538; [2]
  MIC (S. aeureus, ATCC 6538): 0.76 µg/mL (≈ 1.04 µM)
S. aeureus, ATCC 6538; [3]
  MIC (S. aeureus, ATCC 6538): 0.76 µg/mL (≈ 1.04 µM)
A. baumanni-ATCC-19606; [1]
  MIC (A. baumanni-ATCC-19606): 3.12 µg/mL (≈ 4.27 µM)
A. baumanni-ATCC-19606; [2]
  MIC (A. baumanni-ATCC-19606): 6.25 µg/mL (≈ 8.56 µM)
A. baumanni-ATCC-19606; [3]
  MIC (A. baumanni-ATCC-19606): 0.39 µg/mL (≈ 0.534 µM)
K. pneumonia, ATCC-18804; [2]
  MIC (K. pneumonia, ATCC-18804): 12.5 µg/mL (≈ 17.1 µM)
K. pneumonia, ATCC-18804; [3]
  MIC (K. pneumonia, ATCC-18804): 6.25 µg/mL (≈ 8.56 µM)
P. aeruginosa, ATCC-9027; [1]
  MIC90 (P. aeruginosa, ATCC-9027): 6.25 µg/mL (≈ 8.56 µM)
P. aeruginosa, ATCC-9027; [2]
  MIC90 (P. aeruginosa, ATCC-9027): 0.76 µg/mL (≈ 1.04 µM)
P. aeruginosa, ATCC-9027; [3]
  MIC90 (P. aeruginosa, ATCC-9027): 0.76 µg/mL (≈ 1.04 µM)

## N=C(NCCN(CCNC(=N)NC(=N)Nc1ccc(C(F)(F)F)cc1)CCNC(=N)NC(=N)Nc1ccc(C(F)(F)F)cc1)NC(=N)Nc1ccc(C(F)(F)F)cc1 [USD 19]
E. coli, ATCC-8739; [1]
  MIC90 (E. coli, ATCC-8739): 12.5 µg/mL (≈ 15 µM)
E. coli, ATCC-8739; [2]
  MIC90 (E. coli, ATCC-8739): 315 µg/mL (≈ 379 µM)
S. marcenes, ATCC-21639; [1]
  MIC (S. marcenes, ATCC-21639): 3.12 µg/mL (≈ 3.76 µM)
S. marcenes, ATCC-21639; [2]
  MIC (S. marcenes, ATCC-21639): 100 µg/mL (≈ 120 µM)
C. albicans, ATCC1-0231; [2]
  MIC (C. albicans, ATCC1-0231): 6.25 µg/mL (≈ 7.52 µM)
S. aeureus, ATCC 6538; [1]
  MIC (S. aeureus, ATCC 6538): 3.12 µg/mL (≈ 3.76 µM)
S. aeureus, ATCC 6538; [2]
  MIC (S. aeureus, ATCC 6538): 1.5 µg/mL (≈ 1.81 µM)
A. baumanni-ATCC-19606; [1]
  MIC (A. baumanni-ATCC-19606): 3.12 µg/mL (≈ 3.76 µM)
A. baumanni-ATCC-19606; [2]
  MIC (A. baumanni-ATCC-19606): 1.5 µg/mL (≈ 1.81 µM)
K. pneumonia, ATCC-18804; [2]
  MIC (K. pneumonia, ATCC-18804): 25 µg/mL (≈ 30.1 µM)
P. aeruginosa, ATCC-9027; [1]
  MIC90 (P. aeruginosa, ATCC-9027): 12.5 µg/mL (≈ 15 µM)
P. aeruginosa, ATCC-9027; [2]
  MIC90 (P. aeruginosa, ATCC-9027): 3.15 µg/mL (≈ 3.79 µM)

## Cl.Cl.N=C(NCCCCCCNC(=N)NC(=N)Nc1ccc(Cl)cc1)NC(=N)Nc1ccc(Cl)cc1 [USD 20, chlorhexidine dihydrochloride, reference compound]
E. coli, ATCC-8739; [1]
  MIC90 (E. coli, ATCC-8739): 0.78 µg/mL
E. coli, ATCC-8739; [3]
  MIC90 (E. coli, ATCC-8739): 1.5 µg/mL
S. marcenes, ATCC-21639; [1]
  MIC (S. marcenes, ATCC-21639): 6.25 µg/mL
S. marcenes, ATCC-21639; [3]
  MIC (S. marcenes, ATCC-21639): 3.25 µg/mL
C. albicans, ATCC1-0231; [3]
  MIC (C. albicans, ATCC1-0231): 12.5 µg/mL
S. aeureus, ATCC 6538; [1]
  MIC (S. aeureus, ATCC 6538): 0.78 µg/mL
S. aeureus, ATCC 6538; [3]
  MIC (S. aeureus, ATCC 6538): 0.76 µg/mL
A. baumanni-ATCC-19606; [1]
  MIC (A. baumanni-ATCC-19606): 25 µg/mL
A. baumanni-ATCC-19606; [3]
  MIC (A. baumanni-ATCC-19606): 0.39 µg/mL
K. pneumonia, ATCC-18804; [1]
  MIC (K. pneumonia, ATCC-18804): 25 µg/mL
K. pneumonia, ATCC-18804; [3]
  MIC (K. pneumonia, ATCC-18804): 3.12 µg/mL
P. aeruginosa, ATCC-9027; [1]
  MIC90 (P. aeruginosa, ATCC-9027): 25 µg/mL
P. aeruginosa, ATCC-9027; [3]
  MIC90 (P. aeruginosa, ATCC-9027): 1.5 µg/mL
